Source: article PMC5744064, “Regulation of Class A β-Lactamase CzoA by CzoR and IscR in Comamonas testosteroni S44” (Frontiers in Microbiology, 2017)
≈ marks a conversion by molar mass, not a printed value.

system: T1, C. testosteroni S44; assay: organism not typed; set-up: species or system Comamonas testosteroni S44; Broth dilution MIC in Mueller-Hinton broth, bacterial growth inhibition (CLSI); conditions: wild-type S44, MH broth
T1 construct: S44
Protocol: Minimal inhibitory concentration profiles of the recombinant E. coli DH5α ([Miller and Mekalanos, 1988]) expressing czoA (pCT-Zori::czoA) and the isogenic strains of C. testosteroni S44 (S44, ΔczoR, ΔczoR-C, ΔiscR, and ΔiscR-C) were determined by the broth dilution method ([Clinical and Laboratory Standards Institute, 2014]) using 11 β-lactams. For the recombinant E. coli DH5α, two β-lactamase inhibitors, clavulanic acid, and tazobactam were also tested. E. coli DH5α (pCT-Zori) was used as a control. Clavulanic acid and tazobactam were generally fixed at a concentration of 2 and 4 μg/ml, respectively ([Girlich et al., 2007]; [Naas et al., 2007]; [Lamoureaux et al., 2013]; [Clinical and Laboratory Standards Institute, 2014]). Moreover, growth tendency of the isogenic strains of S44 under stress of 11 β-lactams with concentration below MIC was evaluated through OD600 values. Isogenic strains of C. testosteroni S44 in exponential growth phase were inoculated with each of 11 β-lactams in MH medium at 37°C and OD600 values were determined using a spectrophotometer after growth for 24 h. Bacterial strains, plasmids, and [compound left out] primers used in this study are shown in Supplementary Table S1. All strains were grown at 37°C in Luria-Bertani (LB, Oxoid, United Kingdom) broth unless otherwise stated. Mueller-Hinton (MH, Beijing Land Bridge Technology, China) broth dilution was used to determine the minimal inhibitory concentration (MIC) of antibiotics. Antibiotic disk (Hangzhou Microbial Reagent, China) diffusion tests were used for the antibiotic susceptibility assay (cephalexin and cefazolin). […] Then, the seed [compound left out] was used directly in relevant experiments.

MIC [µg/mL] | SMILES
> 2050 | CC1(C)S[C@@H]2[C@H](NC(=O)[C@H](N)c3ccccc3)C(=O)N2[C@H]1C(=O)O [Ampicillin]
> 2050 | CC1(C)S[C@@H]2[C@H](NC(=O)Cc3ccccc3)C(=O)N2[C@H]1C(=O)O [Benzylpenicillin]
> 1020 | CC1=C(C(=O)O)N2C(=O)[C@@H](NC(=O)[C@H](N)c3ccccc3)[C@H]2SC1 [Cefalexin]
> 2050 | Cc1nnc(SCC2=C(C(=O)O)N3C(=O)[C@@H](NC(=O)Cn4cnnn4)[C@H]3SC2)s1 [Cefazolin]
> 512 | CO/N=C(\C(=O)N[C@@H]1C(=O)N2C(C(=O)[O-])=C(C[N+]3(C)CCCC3)CS[C@H]12)c1csc(N)n1 [Cefepime]
128 (≈ 299 µM) | CO[C@@]1(NC(=O)Cc2cccs2)C(=O)N2C(C(=O)O)=C(COC(N)=O)CS[C@@H]21 [Cefoxitin]
128 (≈ 234 µM) | CC(C)(O/N=C(\C(=O)N[C@@H]1C(=O)N2C(C(=O)[O-])=C(C[n+]3ccccc3)CS[C@H]12)c1csc(N)n1)C(=O)O [Ceftazidime]
> 1020 | CO/N=C(\C(=O)N[C@@H]1C(=O)N2C(C(=O)O)=C(CSc3nc(=O)c(=O)[nH]n3C)CS[C@H]12)c1csc(N)n1 [Ceftriaxone]
> 128 | CO/N=C(\C(=O)N[C@@H]1C(=O)N2C(C(=O)O)=C(COC(N)=O)CS[C@H]12)c1ccco1 [Cefuroxime]
8 (≈ 26.7 µM) | C[C@@H](O)[C@H]1C(=O)N2C(C(=O)O)=C(SCCNC=N)C[C@H]12 [Imipenem]
1 (≈ 2.61 µM) | C[C@@H](O)[C@H]1C(=O)N2C(C(=O)O)=C(S[C@@H]3CN[C@H](C(=O)N(C)C)C3)[C@H](C)[C@H]12 [Meropenem]
